Each structure is given as a SMILES string.

By viability is commonly meant the share of living cells, or the viability signal relative to a control.

The first assay deals with S. mansoni schistosomulae. The assay can be described thus: Motility assay on schistosomulae (pixel displacement, relative to DMSO control). It counts as cell-based, Schistosoma mansoni. Particulars: Schistosoma mansoni, 120 h; schistosomulae, secondary screen, 24h exposure, read at D5, 1 µM; read-out: Fractional motility. As for the experimental part:
Puerto Rican strain Biomphalaria glabrata snails infected with S. mansoni were kindly provided by Dr. Fred Lewis (Biomedical Research Institute and BEI Resources, MD, USA). Schistosomulae were obtained by exposing six to eight weeks-old snails to continuous light for 2 h at 32 °C. The resulting suspension of cercaria was then mechanically transformed as described ([Lewis, 2001]) and cultured in Opti-MEM/antibiotics (Thermo Fisher Scientific, Waltham, MA) containing 100 μg/mL streptomycin and 100 units/ml penicillin supplemented with 5% fetal bovine serum (FBS; Thermo Fisher). Parasite cultures were incubated at 37 °C with 5% CO2 for at least 10 days with no apparent loss of viability. At this point, animals with internal dark granulations and with no observable body contraction/relaxation cycles were considered dead.
(§1) Schistosomulae (200/well) and adult parasites (unpaired worms) were maintained in 300 μL OPTI-MEM with 5% dialyzed FBS (without antibiotics) and exposed to compounds at 1 and 10 μM for 24 h. A kinetic assay consisting of 1, 3, 6 and 12 h incubation times was performed on selected hits by motility monitoring using a stereo microscope (SMZ1270, Nikon) for adults and an inverted microscope for schistosomulae (eclipse TE2000-U, Nikon) connected to a monochrome camera (DS-Qi2, Nikon) for image acquisition. Images were recorded at a rate of 10 frames/s for a period of 1 min and videos were analyzed using ImageJ software (version 1.41, NIH, USA). Parasite movement quantification and data analysis protocols were applied using the pixel displacement method ([Patocka et al., 2014]; [Rashid et al., 2015]) and compared to control parasites treated with DMSO. Parasites were then washed several times in Opti-MEM, 5% FBS and incubated up to an additional three days (schistosomulae) or five days (adult worms) at 37 °C, 5% CO2 and motility was recorded as described above.
Turning to `Cc1ccc(C(=O)N(CCCN)[C@@H](c2nc3cc(Cl)ccc3c(=O)n2Cc2ccccc2)C(C)C)cc1` [Ispinesib], the activity at 1 µM came to 125%.

For `CCN(CC)CCOc1ccc(C(=C(Cl)c2ccccc2)c2ccccc2)cc1` [Clomifene], the activity at 1 µM worked out at 49%.

For the compound `Cc1ccc(C(=O)N(CCCN)[C@@H](c2oc3cc(Cl)ccc3c(=O)c2Cc2ccccc2)C(C)C)cc1` [SB743921], the activity at 1 µM was 17%.

As to `NCC(=O)Nc1ccc(-n2nc(C(F)(F)F)cc2-c2ccc3c(ccc4ccccc43)c2)cc1` [OSU-03012], the activity at 1 µM amounted to 26%.

For `CNCCC(Oc1ccc(C(F)(F)F)cc1)c1ccccc1` (stereo not shown) [Fluoxetine], the activity at 1 µM turned out to be 105%.

With `C=CC[C@]1(O)CC[C@H]2[C@@H]3CCC4=CC(=O)CCC4=C3C=C[C@@]21C` [Altrenogest], the activity at 1 µM was -12%.

The same assay, now with this note: Schistosoma mansoni; schistosomulae, secondary screen, 24h exposure, read at D1, 1 µM; read-out: Fractional motility.
As for `Cc1ccc(C(=O)N(CCCN)[C@@H](c2nc3cc(Cl)ccc3c(=O)n2Cc2ccccc2)C(C)C)cc1` [Ispinesib], the activity at 1 µM stood at 24%.

`CCN(CC)CCOc1ccc(C(=C(Cl)c2ccccc2)c2ccccc2)cc1` [Clomifene]: the activity at 1 µM is 12%.

Turning to `Cc1ccc(C(=O)N(CCCN)[C@@H](c2oc3cc(Cl)ccc3c(=O)c2Cc2ccccc2)C(C)C)cc1` [SB743921], the activity at 1 µM was 74%.

Turning to `NCC(=O)Nc1ccc(-n2nc(C(F)(F)F)cc2-c2ccc3c(ccc4ccccc43)c2)cc1` [OSU-03012], the activity at 1 µM came to 26%.

On to `C=CC[C@]1(O)CC[C@H]2[C@@H]3CCC4=CC(=O)CCC4=C3C=C[C@@]21C` [Altrenogest], for which the activity at 1 µM was found to be 147%.

The assay is the same for the next values; noted with them: schistosomulae, secondary screen, 24h exposure, read at D1, 10 µM.
`Cc1ccc(C(=O)N(CCCN)[C@@H](c2nc3cc(Cl)ccc3c(=O)n2Cc2ccccc2)C(C)C)cc1` [Ispinesib] yielded a Fractional motility of -0.92.

In turn, `CCN(CC)CCOc1ccc(C(=C(Cl)c2ccccc2)c2ccccc2)cc1` [Clomifene] yielded a Fractional motility of 1.47.

Compound `Cc1ccc(C(=O)N(CCCN)[C@@H](c2oc3cc(Cl)ccc3c(=O)c2Cc2ccccc2)C(C)C)cc1` [SB743921] had a Fractional motility of 1.32.

`NCC(=O)Nc1ccc(-n2nc(C(F)(F)F)cc2-c2ccc3c(ccc4ccccc43)c2)cc1` [OSU-03012] had a Fractional motility of -1.00.

On to `CNCCC(Oc1ccc(C(F)(F)F)cc1)c1ccccc1` (stereo not shown) [Fluoxetine], for which the Fractional motility worked out at 15.72.

For the compound `C=CC[C@]1(O)CC[C@H]2[C@@H]3CCC4=CC(=O)CCC4=C3C=C[C@@]21C` [Altrenogest], the Fractional motility is given as 10.00.

Still in this assay, the particulars now being: schistosomulae, secondary screen, 24h exposure, read at D5, 10 µM.
The compound `Cc1ccc(C(=O)N(CCCN)[C@@H](c2nc3cc(Cl)ccc3c(=O)n2Cc2ccccc2)C(C)C)cc1` [Ispinesib] yielded a Fractional motility of -0.39.

As to `CCN(CC)CCOc1ccc(C(=C(Cl)c2ccccc2)c2ccccc2)cc1` [Clomifene], the Fractional motility was 0.15.

Consider `Cc1ccc(C(=O)N(CCCN)[C@@H](c2oc3cc(Cl)ccc3c(=O)c2Cc2ccccc2)C(C)C)cc1` [SB743921], for which the Fractional motility is given as -0.89.

In turn, `NCC(=O)Nc1ccc(-n2nc(C(F)(F)F)cc2-c2ccc3c(ccc4ccccc43)c2)cc1` [OSU-03012] registered a Fractional motility of -0.72.

As to `CNCCC(Oc1ccc(C(F)(F)F)cc1)c1ccccc1` (stereo not shown) [Fluoxetine], the Fractional motility stood at 0.95.

Compound `C=CC[C@]1(O)CC[C@H]2[C@@H]3CCC4=CC(=O)CCC4=C3C=C[C@@]21C` [Altrenogest] returned a Fractional motility of -0.06.

In another assay the test system is S. mansoni schistosomulae. The assay can be described thus: Phenotypic primary screen assay on schistosomulae (phenotype; viability by methylene blue dye exclusion). It is filed as cell-based. The note with it: Schistosoma mansoni; three-day-old schistosomulae, 10 μM, 24 h; calculated 5 days post compound exposure; read-out: Viability (%).
Turning to `Cc1ccc(C(=O)N(CCCN)[C@@H](c2nc3cc(Cl)ccc3c(=O)n2Cc2ccccc2)C(C)C)cc1` [Ispinesib], the viability at 10 µM was 96%.

Turning to `CCN(CC)CCOc1ccc(C(=C(Cl)c2ccccc2)c2ccccc2)cc1` [Clomifene], the viability at 10 µM was 100%.

For `Cc1ccc(C(=O)N(CCCN)[C@@H](c2oc3cc(Cl)ccc3c(=O)c2Cc2ccccc2)C(C)C)cc1` [SB743921], the viability at 10 µM was 70%.

As to `NCC(=O)Nc1ccc(-n2nc(C(F)(F)F)cc2-c2ccc3c(ccc4ccccc43)c2)cc1` [OSU-03012], the viability at 10 µM was 1%.

Take `CNCCC(Oc1ccc(C(F)(F)F)cc1)c1ccccc1` (stereo not shown) [Fluoxetine]: the viability at 10 µM was 98.5%.

For the compound `C=CC[C@]1(O)CC[C@H]2[C@@H]3CCC4=CC(=O)CCC4=C3C=C[C@@]21C` [Altrenogest], the viability at 10 µM is 90%.

For a further assay, the system named is S. mansoni schistosomulae. Described as above. It counts as cell-based, Schistosoma mansoni. Particulars: three-day-old schistosomulae, 10 μM, 24 h; estimated 5 days post compound exposure. As for the experimental part: Puerto Rican strain Biomphalaria glabrata snails infected with S. mansoni were kindly provided by Dr. Fred Lewis (Biomedical Research Institute and BEI Resources, MD, USA). Schistosomulae were obtained by exposing six to eight weeks-old snails to continuous light for 2 h at 32 °C. […] At this point, animals with internal dark granulations and with no observable body contraction/relaxation cycles were considered dead.
Schistosomulae were monitored under a stereo microscope (SMZ1270, Nikon). Phenotypic observations were made by analyzing schistosomulae, 24 h after drug addition to assess any immediate effect and five days post-compound exposure to observe long-term impacts on both the movement and overall body shape in comparison to control animals exposed to DMSO only.
As for `Cc1ccc(C(=O)N(CCCN)[C@@H](c2nc3cc(Cl)ccc3c(=O)n2Cc2ccccc2)C(C)C)cc1` [Ispinesib], the Phenotype entry is “big, granulated”.

As to `CCN(CC)CCOc1ccc(C(=C(Cl)c2ccccc2)c2ccccc2)cc1` [Clomifene], the Phenotype result is “big, granulated”.

With `Cc1ccc(C(=O)N(CCCN)[C@@H](c2oc3cc(Cl)ccc3c(=O)c2Cc2ccccc2)C(C)C)cc1` [SB743921], the Phenotype result is on record as “big, dark”.

Take `NCC(=O)Nc1ccc(-n2nc(C(F)(F)F)cc2-c2ccc3c(ccc4ccccc43)c2)cc1` [OSU-03012]: the Phenotype result is listed as “big, granulated”.

In the case of `CNCCC(Oc1ccc(C(F)(F)F)cc1)c1ccccc1` (stereo not shown) [Fluoxetine], the Phenotype result is “elongated”.

Take `C=CC[C@]1(O)CC[C@H]2[C@@H]3CCC4=CC(=O)CCC4=C3C=C[C@@]21C` [Altrenogest]: the Phenotype entry is “elongated”.

The subject of the next assay is S. mansoni adult worms. The assay can be described thus: Motility assay on adult parasites (pixel displacement, relative to DMSO control). Particulars: secondary screen, 10 μM, D1, Female adult worms. It counts as cell-based, Schistosoma mansoni. As for the experimental part: Adult parasites were collected from 40 day-old female CD1 mice (Charles River) previously inoculated by the tail infection method ([Lewis, 2001]). Six weeks post-infection, mice were sacrificed, and adult worms extracted after perfusion of in the hepatic portal vein and mesenteric venules ([Lewis, 2001]). Animal procedures were reviewed and approved by the Facility Animal Care Committee of McGill University (Protocol No. 3346) and were conducted in accordance with the guidelines of the Canadian Council on Animal Care.
as §1
`Cc1ccc(C(=O)N(CCCN)[C@@H](c2nc3cc(Cl)ccc3c(=O)n2Cc2ccccc2)C(C)C)cc1` [Ispinesib] displayed a Fractional motility of 3.19.

`CCN(CC)CCOc1ccc(C(=C(Cl)c2ccccc2)c2ccccc2)cc1` [Clomifene] returned a Fractional motility of -0.44.

The compound `Cc1ccc(C(=O)N(CCCN)[C@@H](c2oc3cc(Cl)ccc3c(=O)c2Cc2ccccc2)C(C)C)cc1` [SB743921] had a Fractional motility of 1.14.

`NCC(=O)Nc1ccc(-n2nc(C(F)(F)F)cc2-c2ccc3c(ccc4ccccc43)c2)cc1` [OSU-03012] yielded a Fractional motility of 0.79.

Turning to `CNCCC(Oc1ccc(C(F)(F)F)cc1)c1ccccc1` (stereo not shown) [Fluoxetine], the Fractional motility amounted to 1.96.

`C=CC[C@]1(O)CC[C@H]2[C@@H]3CCC4=CC(=O)CCC4=C3C=C[C@@]21C` [Altrenogest]: the Fractional motility is listed as -0.04.

The assay is the same for the next values; noted with them: secondary screen, 10 μM, D1, Male adult worms.
`Cc1ccc(C(=O)N(CCCN)[C@@H](c2nc3cc(Cl)ccc3c(=O)n2Cc2ccccc2)C(C)C)cc1` [Ispinesib] displayed a Fractional motility of 2.22.

In turn, `Cc1ccc(C(=O)N(CCCN)[C@@H](c2oc3cc(Cl)ccc3c(=O)c2Cc2ccccc2)C(C)C)cc1` [SB743921] displayed a Fractional motility of 1.48.

Compound `NCC(=O)Nc1ccc(-n2nc(C(F)(F)F)cc2-c2ccc3c(ccc4ccccc43)c2)cc1` [OSU-03012] yielded a Fractional motility of 1.37.

For `CNCCC(Oc1ccc(C(F)(F)F)cc1)c1ccccc1` (stereo not shown) [Fluoxetine], the Fractional motility is 2.26.

With `C=CC[C@]1(O)CC[C@H]2[C@@H]3CCC4=CC(=O)CCC4=C3C=C[C@@]21C` [Altrenogest], the Fractional motility was -0.0348.

The same assay, now with this note: secondary screen, 10 μM, D5, Female adult worms.
Compound `Cc1ccc(C(=O)N(CCCN)[C@@H](c2nc3cc(Cl)ccc3c(=O)n2Cc2ccccc2)C(C)C)cc1` [Ispinesib] registered a Fractional motility of -0.34.

In turn, `CCN(CC)CCOc1ccc(C(=C(Cl)c2ccccc2)c2ccccc2)cc1` [Clomifene] yielded a Fractional motility of -0.03.

In turn, `Cc1ccc(C(=O)N(CCCN)[C@@H](c2oc3cc(Cl)ccc3c(=O)c2Cc2ccccc2)C(C)C)cc1` [SB743921] yielded a Fractional motility of -0.87.

In turn, `NCC(=O)Nc1ccc(-n2nc(C(F)(F)F)cc2-c2ccc3c(ccc4ccccc43)c2)cc1` [OSU-03012] registered a Fractional motility of -0.15.

`CNCCC(Oc1ccc(C(F)(F)F)cc1)c1ccccc1` (stereo not shown) [Fluoxetine]: the Fractional motility is listed as 0.45.

In the case of `C=CC[C@]1(O)CC[C@H]2[C@@H]3CCC4=CC(=O)CCC4=C3C=C[C@@]21C` [Altrenogest], the Fractional motility was -0.50.

The assay is the same for the next values; noted with them: secondary screen, 10 μM, D5, Male adult worms.
As to `Cc1ccc(C(=O)N(CCCN)[C@@H](c2nc3cc(Cl)ccc3c(=O)n2Cc2ccccc2)C(C)C)cc1` [Ispinesib], the Fractional motility is -0.33.

Turning to `CCN(CC)CCOc1ccc(C(=C(Cl)c2ccccc2)c2ccccc2)cc1` [Clomifene], the Fractional motility is given as -0.17.

`Cc1ccc(C(=O)N(CCCN)[C@@H](c2oc3cc(Cl)ccc3c(=O)c2Cc2ccccc2)C(C)C)cc1` [SB743921] yielded a Fractional motility of 0.0641.

In turn, `NCC(=O)Nc1ccc(-n2nc(C(F)(F)F)cc2-c2ccc3c(ccc4ccccc43)c2)cc1` [OSU-03012] had a Fractional motility of 0.62.

As for `CNCCC(Oc1ccc(C(F)(F)F)cc1)c1ccccc1` (stereo not shown) [Fluoxetine], the Fractional motility is reported as -0.0243.

The compound `C=CC[C@]1(O)CC[C@H]2[C@@H]3CCC4=CC(=O)CCC4=C3C=C[C@@]21C` [Altrenogest] gave a Fractional motility of 0.0449.
